Test systems include NCI-H460; SR; EKVX; TK-10; MDA-MB-231; UACC-257; NCI-H522; ACHN; MDA-N; HT-29; PC-3; SF-268; HCT-15; OVCAR-4; SNB-75; HL-60; M14; MCF7; HCC 2998; COLO 205.
Common to all, as to assay: NCI anticancer screen, dose series, 48 h

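Test compounds were applied to cells in 96-well plates for 48 hours at 5 doses. GI50 = concentration required for 50% inhibition of growth.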 Calls of active or inactive are those of the source. Rule as the data show it: active = GI50 up to about 1.1 µM and inactive = higher.

For `O=C(O)CSCC(=O)O`, the GI50 in the test with NCI-H460, in the test with SR, in the test with EKVX, in the test with TK-10, in the test with MDA-MB-231 and in the test with UACC-257 was > 100 µM (inactive) throughout. The GI50 in the test on NCI-H522, in the test with ACHN, in the test on MDA-N, in the test with HT-29, in the test with PC-3 and in the test with SF-268 was > 100 µM (inactive) throughout. Also, the GI50 with HCT-15 is > 100 µM; with OVCAR-4, > 100 µM (inactive); in the test with SNB-75, > 100 µM (inactive); in the test with HL-60 it was > 100 µM (inactive); with M14, > 100 µM (inactive).

`O=C(c1ccc(Cl)cc1)N(C(=S)OCCOc1ccccc1)c1ccccc1`: the GI50 with NCI-H460 was 23.2 µM (inactive); in the test with EKVX, 20.1 µM (inactive); in the test on TK-10, 29.4 µM (inactive); with MDA-MB-231, 23.1 µM (inactive); with UACC-257, 18.7 µM (inactive); in the test with NCI-H522, 19.1 µM (inactive). For the same molecule, the GI50 was 20.3 µM (inactive) in the test on ACHN; 16.6 µM (inactive) in the test with MDA-N; 17.6 µM (inactive) with HT-29; 21.1 µM (inactive) in the test on PC-3; 25.1 µM (inactive) with SF-268; 19.3 µM with HCT-15. Moreover, the GI50 in the test on OVCAR-4 was 18.6 µM (inactive); in the test with MCF7, 16.1 µM (inactive); with HCC 2998, 19.5 µM (inactive); with COLO 205 it was 19.9 µM (inactive); with HL-60, 18.6 µM (inactive); in the test with M14, 16.1 µM (inactive).

Regarding `C#CCCOC1(OC)N=NC(C)(C)O1` (configuration not stated), the GI50 in the test with NCI-H460, in the test on SR, with EKVX, in the test on MDA-MB-231, in the test on UACC-257 and in the test on NCI-H522 was > 100 µM (inactive) throughout. Also, the GI50 is > 100 µM (inactive) in the test with ACHN; > 100 µM (inactive) in the test with MDA-N; > 100 µM (inactive) with HT-29; > 100 µM (inactive) in the test on PC-3; > 100 µM (inactive) with SF-268; > 100 µM in the test on HCT-15. The GI50 in the test with OVCAR-4, in the test on HCC 2998, in the test on COLO 205, in the test on SNB-75, in the test on HL-60 and with M14 was > 100 µM (inactive) in each case.

`Cc1cn(C2CC(OC(=O)c3ccc(Cl)cc3)C(COC(=O)c3ccc(Cl)cc3)O2)c(=O)[nH]c1=O` (configuration not stated): the GI50 in the test on NCI-H460, in the test with SR, in the test with EKVX, in the test with TK-10, in the test with UACC-257 and with NCI-H522 was > 100 µM (inactive) each time. In addition, the GI50 in the test with ACHN was > 100 µM (inactive); with MDA-N, > 100 µM (inactive); in the test on HT-29, > 100 µM (inactive); with PC-3, > 100 µM (inactive); with SF-268, > 100 µM (inactive); in the test with HCT-15 it was > 100 µM. Also, the GI50 with OVCAR-4, in the test on MCF7, in the test on COLO 205, in the test with SNB-75, with HL-60 and in the test with M14 was > 100 µM (inactive) throughout.

Turning to `O=[As](O)(O)c1ccc(/N=N/c2ccc(O)cc2)cc1`, the GI50 in the test with NCI-H460, in the test with EKVX, in the test with TK-10, in the test with MDA-MB-231, in the test on NCI-H522 and in the test on ACHN was > 100 µM (inactive) throughout. The GI50 with MDA-N was > 100 µM (inactive); in the test on HT-29, > 100 µM (inactive); with PC-3 it was > 100 µM (inactive); with SF-268, > 100 µM (inactive); in the test on HCT-15, > 100 µM; in the test with OVCAR-4 it was > 100 µM (inactive). Moreover, the GI50 with MCF7, in the test on COLO 205, in the test on SNB-75, in the test on HL-60 and in the test on M14 was > 100 µM (inactive) each time.

Consider `CC(C)(C)OC(=O)NCCCC(=O)NC1(c2cc3ccccc3s2)CCCCC1`, for which the GI50 in the test on NCI-H460 was 17 µM (inactive); with SR, 12.6 µM (inactive); in the test with EKVX, 8.26 µM (inactive); in the test on TK-10, 29 µM (inactive); in the test with UACC-257, 13.6 µM (inactive); in the test with NCI-H522, 13.1 µM (inactive). The GI50 in the test on ACHN is 22.8 µM (inactive); with MDA-N, 15.8 µM (inactive); in the test on HT-29 it was 13.1 µM (inactive); in the test with SF-268 it was 17.9 µM (inactive); in the test on HCT-15, 15.6 µM; in the test with OVCAR-4 it was 20.5 µM (inactive). For the same molecule, the GI50 was 16.3 µM (inactive) in the test on MCF7; 21.6 µM (inactive) in the test on HCC 2998; 13.8 µM (inactive) in the test with COLO 205; 5.11 µM (inactive) in the test on SNB-75; 6.76 µM (inactive) in the test on HL-60; 18 µM (inactive) in the test on M14.

`N#Cc1c2c(c(Nc3cccc(C(F)(F)F)c3)n3c1nc1ccccc13)CCCC2`: the GI50 was 23.1 µM (inactive) in the test with NCI-H460; 20.8 µM (inactive) in the test on EKVX; 16.3 µM (inactive) in the test on TK-10; 17.5 µM (inactive) in the test on MDA-MB-231; 22.2 µM (inactive) with UACC-257; 1.47 µM (inactive) with NCI-H522. Also, the GI50 with ACHN is 27.3 µM (inactive); in the test on MDA-N, 15 µM (inactive); with HT-29, 16.2 µM (inactive); in the test with SF-268, 15.2 µM (inactive); in the test on HCT-15, 39.2 µM; in the test with OVCAR-4, 13.9 µM (inactive). Also, the GI50 in the test on COLO 205 is > 100 µM (inactive); in the test on SNB-75, 10.6 µM (inactive).

For the molecule `CCOC(=O)C(NC(=O)c1ccccc1)(N1CCN(c2cc3c(cc2F)c(=O)c(C(=O)O)cn3C2CC2)CC1)C(F)(F)F` (configuration not stated), the GI50 with NCI-H460 was 21 µM (inactive); in the test with SR, 20.5 µM (inactive); in the test on EKVX it was 24.9 µM (inactive); with MDA-MB-231, 12.9 µM (inactive); in the test with ACHN it was 23.9 µM (inactive); with MDA-N, 21.1 µM (inactive). Also, the GI50 was 23.6 µM (inactive) in the test with PC-3; 18.1 µM (inactive) in the test on SF-268; 22.5 µM (inactive) with OVCAR-4; 22.5 µM (inactive) in the test with HCC 2998; 17.1 µM (inactive) in the test on COLO 205; 24 µM (inactive) in the test on SNB-75. The values for the GI50 in the test with HL-60 and in the test on M14 were 14.4 µM (inactive) and 19.6 µM (inactive), respectively.

In the case of `CCOC(=O)CCC(NC(=O)c1ccc(OCc2ccc3nc(OC)c(OC)nc3c2)cc1)C(=O)OCC` (configuration not stated), the GI50 is 22.6 µM (inactive) in the test on NCI-H460; 45.1 µM (inactive) with SR; 35.2 µM (inactive) in the test on TK-10; 29.1 µM (inactive) with UACC-257; 24.7 µM (inactive) in the test with NCI-H522; 32.9 µM (inactive) with ACHN. In addition, the GI50 in the test with MDA-N was 24 µM (inactive); with HT-29 it was > 100 µM (inactive); in the test with PC-3 it was 36.4 µM (inactive); in the test with SF-268 it was 57.7 µM (inactive); in the test on HCT-15, 75.5 µM; with MCF7 it was 35.1 µM (inactive). For the same molecule, the GI50 is 50.1 µM (inactive) in the test on HCC 2998; 16.7 µM (inactive) in the test with COLO 205; 52.6 µM (inactive) in the test with SNB-75; 31.7 µM (inactive) in the test on HL-60; 21.9 µM (inactive) with M14.

For the molecule `C=C1OC(c2ccccc2NC)=NC12CCCCC2`, the GI50 in the test with NCI-H460, with EKVX, in the test on TK-10, in the test on MDA-MB-231, in the test on UACC-257 and in the test on NCI-H522 was > 100 µM (inactive) throughout. Also, the GI50 in the test on ACHN was > 100 µM (inactive); with MDA-N, > 100 µM (inactive); with HT-29, > 100 µM (inactive); with PC-3, > 100 µM (inactive); in the test with SF-268 it was > 100 µM (inactive); in the test on HCT-15, > 100 µM. Besides, the GI50 in the test on OVCAR-4, in the test with MCF7, in the test with HCC 2998, in the test on COLO 205, in the test on HL-60 and with M14 was > 100 µM (inactive) each time.

Regarding `N=C(N)N/N=C/c1c(-c2cc([N+](=O)[O-])c(Cl)cc2Cl)nc2n1CCS2`, the GI50 was 27.6 µM (inactive) in the test on NCI-H460; 0.951 µM (active) in the test with SR; 40.9 µM (inactive) in the test with EKVX; 15.5 µM (inactive) in the test on TK-10; 24.1 µM (inactive) with MDA-MB-231; 20.7 µM (inactive) in the test on UACC-257. Moreover, the GI50 is 17 µM (inactive) in the test on NCI-H522; 22.4 µM (inactive) with ACHN; 7.08 µM (inactive) with HT-29; 13.2 µM (inactive) in the test on PC-3; 9.93 µM (inactive) with SF-268; 47 µM with HCT-15. Also, the GI50 with OVCAR-4 was 10.4 µM (inactive); in the test on MCF7, 2.67 µM (inactive); with HCC 2998, 2.55 µM (inactive); with COLO 205, 2.66 µM (inactive); with HL-60, 5.08 µM (inactive); with M14, 6.04 µM (inactive).

With `O=C(c1ccco1)N1CCCN(C(=O)c2ccco2)C1=S`, the GI50 was > 100 µM (inactive) in the test on NCI-H460; 2.32 µM (inactive) with EKVX; > 100 µM (inactive) with TK-10; > 100 µM (inactive) with MDA-MB-231; > 100 µM (inactive) with UACC-257; > 100 µM (inactive) in the test on ACHN. Besides, the GI50 with MDA-N is > 100 µM (inactive); in the test with HT-29, > 100 µM (inactive); in the test on PC-3 it was 24.4 µM (inactive); with SF-268 it was > 100 µM (inactive); in the test on HCT-15, > 100 µM; with MCF7, 74.8 µM (inactive). The GI50 in the test with COLO 205, with HL-60 and in the test with M14 was > 100 µM (inactive) throughout.

The record behind these values is ChEMBL document CHEMBL1201862, “PubChem BioAssay data set” (2004).
